# Reference: patent US8278304B2, “Substituted 4-hydroxypyrimidine-5-carboxamides” (Merck Sharp & Dohme Corp., priority 2008, dated 2012)
# Where a name gives a salt, the structure may show the parent alone.
# Biological target: T1, PHD2 (Homo sapiens, UniProt Q9GZT9)
# T1 construct: FLAG-tagged full length PHD2 expressed in and purified from baculovirus-infected Sf9 cells; FLAG; made in house; host or cells: baculovirus-infected Sf9 cells
# Experiment: PHD2 / HIF-1α peptide hydroxylation assay, time resolved fluorescence (VHL complex detection)
# Format: biochemical
# Settings: FLAG-tagged full length PHD2; 0.2 μM 2-oxoglutarate, 0.5 μM HIF-1α peptide; read-out: PHD2 Activity (PHD2 binding activity expressed as IC50 (nM))
# Procedure: To each well of a 96-well plate was added 1 μL of test compound in DMSO and 20 μl of assay buffer (50 mM Tris pH 7.4/0.01% Tween-20/0.1 mg/ml bovine serum albumin/10 μM ferrous sulfate/1 mM sodium ascorbate/20 μg/ml catalase) containing 0.15 μg/ml FLAG-tagged full length PHD2 expressed in and purified from baculovirus-infected Sf9 cells. After a 30 min preincubation at room temperature, the enzymatic reactions were initiated by the addition of 4 μL of substrates (final concentrations of 0.2 μM 2-oxoglutarate and 0.5 μM HIF-1α peptide biotinyl-[…]).
# T1 sequence (Q9GZT9 whole entry): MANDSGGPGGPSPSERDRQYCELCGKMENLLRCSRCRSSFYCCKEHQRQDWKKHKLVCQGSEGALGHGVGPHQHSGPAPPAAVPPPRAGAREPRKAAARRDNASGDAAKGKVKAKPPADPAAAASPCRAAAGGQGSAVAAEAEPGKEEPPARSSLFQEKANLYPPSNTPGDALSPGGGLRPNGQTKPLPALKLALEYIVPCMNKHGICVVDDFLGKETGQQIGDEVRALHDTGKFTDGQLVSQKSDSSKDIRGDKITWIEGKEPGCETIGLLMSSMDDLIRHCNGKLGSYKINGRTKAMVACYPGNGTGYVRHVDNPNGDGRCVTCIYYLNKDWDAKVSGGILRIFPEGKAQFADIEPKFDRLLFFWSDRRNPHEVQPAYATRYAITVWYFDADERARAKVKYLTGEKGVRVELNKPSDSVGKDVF
row,Compound,IC50
1,"O=C(NCc1ccc(-c2ccccc2Cl)cc1)c1cnc(-n2cccn2)nc1O [Example 62, N-[(2′-chlorobiphenyl-4-yl)methyl]-4-hydroxy-2-(1H-pyrazol-1-yl)pyrimidine-5-carboxamide]",≤ 10 nM
2,"COc1ccc(C(NC(=O)c2cnc(-c3cccnn3)nc2O)c2ccc(C#N)nc2)cc1 (stereo not shown) [Example 112, N-[(6-cyanopyridin-3-yl)(4-methoxyphenyl)methyl]-4-hydroxy-2-pyridazin-3-ylpyrimidine-5-carboxamide]",≤ 10 nM
3,"Cc1ccccc1Oc1ccc(CNC(=O)c2cnc(-n3cccn3)nc2O)cc1 [Example 100, 4-hydroxy-N-[4-(2-methylphenoxy)benzyl]-2-(1H-pyrazol-1-yl)pyrimidine-5-carboxamide]",≤ 10 nM
4,"O=C(c1ccccc1)c1ccc(CNC(=O)c2cnc(-n3cccn3)nc2O)cc1 [Example 95, N-(4-benzoylbenzyl)-4-hydroxy-2-(1H-pyrazol-1-yl)pyrimidine-5-carboxamide]",≤ 10 nM
5,"Cc1nc(-c2ncc(C(=O)NCCc3ccc(F)cc3)c(O)n2)cs1 [Example 32, N-[2-(4-fluorophenyl)ethyl]-4-hydroxy-2-(2-methyl-1,3-thiazol-4-yl)pyrimidine-5-carboxamide]",100 to 1000 nM
6,"COc1ccc(C(NC(=O)c2cnc(-c3cccnn3)nc2O)c2nc3ccccc3s2)cc1 (stereo not shown) [Example 173, N-[1,3-benzothiazol-2-yl(4-methoxyphenyl)methyl]-4-hydroxy-2-(pyridazin-3-yl)pyrimidine-5-carboxamide]",≤ 10 nM
7,"COc1ccc(C(NC(=O)c2cnc(-c3cccnn3)nc2O)c2ccc(OC)nc2)cc1 (single isomer, unassigned) [Example 191]",≤ 10 nM
8,"COc1ccc(C(NC(=O)c2cnc(-c3cccnn3)nc2O)c2ccc3c(c2)CCO3)cc1 (single isomer, unassigned) [Example 164, N-[2,3-dihydro-1-benzofuran-5-yl(4-methoxyphenyl)methyl]-4-hydroxy-2-(pyridazin-3-yl)pyrimidine-5-carboxamide]",≤ 10 nM
9,"Cc1nc(-c2ncc(C(=O)NCc3ccc(-c4ccccc4)cc3)c(O)n2)cs1 [Example 30, N-(biphenyl-4-ylmethyl)-4-hydroxy-2-(2-methyl-1,3-thiazol-4-yl)pyrimidine-5-carboxamide]",10 to 100 nM
10,"COc1ccc(C(NC(=O)c2cnc(-c3cccnn3)nc2O)c2cccc(C#N)c2)cc1 (single isomer, unassigned) [Example 148, N-[(3-cyanophenyl)(4-methoxyphenyl)methyl]-4-hydroxy-2-(pyridazin-3-yl)pyrimidine-5-carboxamide]",≤ 10 nM
11,"COc1ccc(C(NC(=O)c2cnc(-c3cccnn3)nc2O)c2ccc3cc(OC)ccc3n2)cc1 (stereo not shown) [Example 172, 4-hydroxy-N-[(4-methoxyphenyl)(6-methoxyquinolin-2-yl)methyl]-2-(pyridazin-3-yl)pyrimidine-5-carboxamide]",≤ 10 nM
12,"O=C(NC1(c2ccccc2)CCCCC1)c1cnc(-n2cccn2)nc1O [Example 94, 4-hydroxy-N-(1-phenylcyclohexyl)-2-(1H-pyrazol-1-yl)pyrimidine-5-carboxamide]",≤ 10 nM
13,"N#Cc1ccc(C(NC(=O)c2cnc(-c3cccnn3)nc2O)C2CCCCC2)cc1 (single isomer, unassigned) [Example 163, N-[(4-cyanophenyl)(cyclohexyl)methyl]-4-hydroxy-2-(pyridazin-3-yl)pyrimidine-5-carboxamide]",≤ 10 nM
14,"Cc1cnc(CNC(=O)c2cnc(-n3cccn3)nc2O)cn1 [Example 66, 4-Hydroxy-N-[(5-methylpyrazin-2-yl)methyl]-2-(1H-pyrazol-1-yl)pyrimidine-5-carboxamide]",100 to 1000 nM
15,"COc1ccc(C(NC(=O)c2cnc(-c3cccnn3)nc2O)c2ccc(OC(F)(F)F)cc2)cc1 (single isomer, unassigned) [Example 152, 4-hydroxy-N-{(4-methoxyphenyl)[4-(trifluoromethoxy)phenyl]methyl}-2-(pyradazin-3-yl)pyrimidine-5-carboxamide]",≤ 10 nM
16,"COc1ccc(C(NC(=O)c2cnc(-c3cccnn3)nc2O)c2ccc(F)cc2)c(OC)c1 (stereo not shown) [Example 176, N-[(2,4-dimethoxyphenyl)(4-fluorophenyl)methyl]-4-hydroxy-2-(pyridazin-3-yl)pyrimidine-5-carboxamide]",≤ 10 nM
17,"Cc1cccc(-c2ncc(C(=O)NCc3ccc(-c4ccccc4)cc3)c(O)n2)n1 [Example 15, N-(biphenyl-4-ylmethyl)-4-hydroxy-2-(6-methylpyridin-2-yl)pyrimidine-5-carboxamide]",100 to 1000 nM
18,"C[C@H](NC(=O)c1cnc(-n2cccn2)nc1O)c1ccc2ccccc2c1 [Example 121, 4-hydroxy-N-[(1S)-1-(naphthalen-2-yl)ethyl]-2-(1H-pyrazol-1-yl)pyrimidine-5-carboxamide]",≤ 10 nM
19,"O=C(NC(c1ccc(O)cc1)c1ccc(O)cc1)c1cnc(-c2cccnn2)nc1O [Example 6, N-[bis(4-hydroxyphenyl)methyl]-4-hydroxy-2-ylpyridazin-3-ylpyrimidine-5-carboxamide]",≤ 10 nM

row,Compound,IC50
1,"O=C(NCc1ccc(F)cc1)c1cnc(-c2cnccn2)nc1O [Example 18, N-(4-fluorobenzyl)-4-hydroxy-2-pyrazin-2-ylpyrimidine-5-carboxamide]",100 to 1000 nM
2,"O=C(NCc1ccc(Oc2ccc(F)cc2)cc1)c1cnc(-n2cccn2)nc1O [Example 99, N-[4-(4-fluorophenoxy)benzyl]-4-hydroxy-2-(1H-pyrazol-1-yl)pyrimidine-5-carboxamide]",≤ 10 nM
3,"COc1ccc(C(NC(=O)c2cnc(-c3cccnn3)nc2O)c2ccc(OC)cc2C)c(C)c1 [Example 175, N-[bis(4-methoxy-2-methylphenyl)methyl]-4-hydroxy-2-(pyridazin-3-yl)pyrimidine-5-carboxamide]",≤ 10 nM
4,"Cc1nc(-c2ncc(C(=O)NCc3ccc(Cl)cc3Cl)c(O)n2)cs1 [Example 37, N-(2,4-dichlorobenzyl)-4-hydroxy-2-(2-methyl-1,3-thiazol-4-yl)pyrimidine-5-carboxamide]",10 to 100 nM
5,"O=C(NC1c2ccccc2-c2ccccc21)c1cnc(-n2cccn2)nc1O [Example 102, N-9H-fluoren-9-yl-4-hydroxy-2-(1H-pyrazol-1-yl)pyrimidine-5-carboxamide]",≤ 10 nM
6,"O=C(NC(c1ccccc1)c1ccccn1)c1cnc(-n2cccn2)nc1O (stereo not shown) [Example 125, 4-hydroxy-N-[phenyl(pyridin-2-yl)methyl]-2-(1H-pyrazol-1-yl)pyrimidine-5-carboxamide trifluoroacetate (salt)]",≤ 10 nM
7,"Cc1ccc(Oc2ccc(CNC(=O)c3cnc(-n4cccn4)nc3O)cc2)cc1 [Example 97, 4-hydroxy-N-[4-(4-methylphenoxy)benzyl]-2-(1H-pyrazol-1-yl)pyrimidine-5-carboxamide]",≤ 10 nM
8,"COc1ccc(C(NC(=O)c2cnc(-n3cccn3)nc2O)c2ccc(SC)cc2)cc1 (stereo not shown) [Example 168, 4-hydroxy-N-{(4-methoxyphenyl)[4-(methylsulfanyl)phenyl]methyl}-2-(1H-pyrazol-1-yl)pyrimidine-5-carboxamide]",≤ 10 nM
9,"O=C(NCc1ccc(F)cc1)c1cnc(-c2ncccn2)nc1O [Example 21, N-(4-fluorobenzyl)-4-hydroxy-2,2′-bipyrimidine-5-carboxamide]",1000 to 10000 nM
10,"COc1ccc(C(NC(=O)c2cnc(-c3cccnn3)nc2O)c2ccc(C)nc2)cc1 (stereo not shown) [Example 114, 4-Hydroxy-N-[(4-methoxyphenyl)(6-methylpyridin-3-yl)methyl]-2-pyridazin-3-ylpyrimidine-5-carboxamide]",≤ 10 nM
11,"O=C(NCc1ccc(-c2ccccc2)nc1)c1cnc(-n2cccn2)nc1O [Example 105, 4-Hydroxy-N-[(6-phenylpyridin-3-yl)methyl]-2-(1H-pyrazol-1-yl)pyrimidine-5-carboxamide]",≤ 10 nM
12,"O=C(N[C@@H]1CONC1=O)c1cnc(-n2cccn2)nc1O [Example 83, 4-Hydroxy-N-[(4R)-3-oxoisoxazolidin-4-yl]-2-(1H-pyrazol-1-yl)pyrimidine-5-carboxamide]",100 to 1000 nM
13,"Cc1nc(-c2ncc(C(=O)Nc3ccc(F)cc3Cl)c(O)n2)cs1 [Example 38, N-(2-chloro-4-fluorophenyl)-4-hydroxy-2-(2-methyl-1,3-thiazol-4-yl)pyrimidine-5-carboxamide]",100 to 1000 nM
14,"O=C(NCc1ccccc1Cl)c1cnc(-c2cccnn2)nc1O [Example 24, N-(2-chlorobenzyl)-4-hydroxy-2-pyridazin-3-ylpyrimidine-5-carboxamide]",10 to 100 nM
15,"COCc1ccc(C(NC(=O)c2cnc(-c3cccnn3)nc2O)c2ccc(COC)cc2)cc1 [Example 184, N-{bis[4-(methoxymethyl)phenyl]methyl}-4-hydroxy-2-pyridazin-3-ylpyrimidine-5-carboxamide]",≤ 10 nM
16,"O=C(NCc1ccc(C(F)(F)F)cc1)c1cnc(-c2ncccn2)nc1O [Example 23, 4-Hydroxy-N-[4-(trifluoromethyl)benzyl]-2,2′-bipyrimidine-5-carboxamide]",100 to 1000 nM
17,"Cc1nc(-c2ncc(C(=O)NCc3ccc(OC(F)(F)F)cc3)c(O)n2)cs1 [Example 31, 4-Hydroxy-2-(2-methyl-1,3-thiazol-4-yl)-N-[4-(trifluoromethoxy)benzyl]pyrimidine-5-carboxamide]",100 to 1000 nM
18,"Cc1nc(-c2ncc(C(=O)Nc3ccc(C(F)(F)F)cc3)c(O)n2)cs1 [Example 34, 4-Hydroxy-2-(2-methyl-1,3-thiazol-4-yl)-N-[4-(trifluoromethyl)phenyl]pyrimidine-5-carboxamide]",1000 to 10000 nM
